Experimental data from US9981928B2, “Aryl sulfide derivatives and aryl sulfoxide derivatives as acaricides and insecticides” (BAYER CROPSCIENCE AKTIENGESELLSCHAFT, priority 2013, dated 2018).
Where two headings read alike, the source gives them in different places.

Experiments:
[1] = log P determination by HPLC on reversed-phase columns (C 18), analogously to OECD Guideline 117; format: physicochemical; conditions: for chromatographic logP: reversed-phase C18 HPLC column; for logP (HCOOH): LC-MS in the acidic range, pH 2.7, 0.1% aqueous formic acid / acetonitrile; for logP (HCOOH) / logP (neutral): HPLC reversed-phase C 18; for logP (neutral): LC-MS in the neutral range, pH 7.8, 0.001 molar aqueous ammonium hydrogencarbonate / acetonitrile
Protocol: The log P values were determined analogously to OECD Guideline 117 (EC Directive 92/69/EEC) by HPLC (high-performance liquid chromatography) using reversed-phase columns (C 18), by the following methods:
[a] The LC-MS determination in the acidic range was effected at pH 2.7 with 0.1% aqueous formic acid and acetonitrile (contains 0.1% formic acid) as eluents; linear gradient from 10% acetonitrile to 95% acetonitrile. log P^[a] is also referred to as log P(HCOOH). [b] LC-MS determination in the neutral range was effected at pH 7.8 with 0.001 molar aqueous ammonium hydrogencarbonate solution and acetonitrile as eluents; linear gradient from 10% acetonitrile to 95% acetonitrile. log P^[…] is also referred to as log P(neutral).

[2] = system: greenhouse red spider mite (Tetranychus urticae); assay: Tetranychus urticae spray test, OP-resistant (TETRUR), bean leaf disks; format: in vivo
Protocol: Tetranychus urticae—Spray Test, OP-Resistant (TETRUR)
Solvent: 78.0 parts by weight of acetone
• 1.5 parts by weight of dimethylformamide Emulsifier: alkylaryl polyglycol ether
To produce a suitable preparation of active compound, 1 part by weight of active compound is dissolved using the stated parts by weight of solvent and made up with water containing an emulsifier concentration of 1000 ppm until the desired concentration is attained. To produce further test concentrations, the preparation is diluted with emulsifier-containing water.
disks of bean leaves (Phaseolus vulgaris) infested with all stages of the greenhouse red spider mite (Tetranychus urticae) are sprayed with an active compound preparation of the desired concentration.
After 6 days, the efficacy in % is determined. 100% means that all the spider mites have been killed; 0% means that none of the spider mites have been killed.

[3] = acidic range, pH 2.7, 0.1% aqueous formic acid and acetonitrile, read-out: log P[a] / log P(HCOOH)
[4] = bean leaf disks, application rate 500 g/ha, after 6 days
[5] = neutral range, pH 7.8, 0.001 molar aqueous ammonium hydrogencarbonate and acetonitrile, read-out: log P[b] / log P(neutral)
[6] = Tetranychus urticae, foliar, 144 h, bean leaf disks, application rate 500 g/ha, after 6 days, read-out: efficacy in %

Cc1cc(F)c(N2C(=O)OC(C)(C)C2=O)cc1[S+]([O-])CC(F)(F)F (centres unmarked) [Example 110, 3-[2-Fluoro-4-methyl-5-(2,2,2-trifluoroethylsulfinyl)phenyl]-5,5-dimethyloxazolidine-2,4-dione]
chromatographic logP [1, 3]: 2.38
pest or weed control at 100 g/ha ([2]; Tetranychus urticae, foliar, 144 h, bean leaf disks, application rate 100 g/ha, after 6 days, read-out: efficacy in %): 100%

C=CCn1c(=O)n(C2CC2)c(=O)n1-c1cc([S+]([O-])CC(F)(F)F)c(C)cc1F (centres unmarked) [Example 165]
logP (HCOOH) [1]: 2.32
logP (neutral) [1]: 2.30
efficacy in % [2, 4]: 90%

Cn1c(=O)n(C2CC2)c(=O)n1-c1ccc(C(F)(F)F)c(SCC(F)(F)F)c1 [Example 53]
logP (HCOOH) [1]: 3.33
logP (neutral) [1]: 3.23
efficacy in % [2, 4]: 100%

Cc1cc(F)c(-n2c(=O)n(C)n(C)c2=O)cc1[S+]([O-])CC(F)(F)F (centres unmarked) [Example 117, 4-{2-Fluoro-4-methyl-5-[(2,2,2-trifluoroethyl)sulfinyl]phenyl}-1,2-dimethyl-1,2,4-triazolidine-3,5-dione]
chromatographic logP [1, 3]: 1.54
chromatographic logP [1, 5]: 1.5
pest or weed control at 500 g/ha [2, 6]: 90%

Cc1cc(F)c(N2C(=O)N(C)C(=O)C2(C)C)cc1SCC(F)(F)F [Example 217, 1-[2-Fluoro-4-methyl-5-(2,2,2-trifluoroethylsulfanyl)phenyl]-3,5,5-trimethylimidazolidine-2,4-dione]
chromatographic logP [1, 3]: 3.11
pest or weed control at 500 g/ha [2, 6]: 90%

Cc1cc(F)c(N2C(=O)OC(C)(C)C2=O)cc1SCC(F)(F)F [Example 111, 3-[2-Fluoro-4-methyl-5-(2,2,2-trifluoroethylsulfanyl)phenyl]-5,5-dimethyloxazolidine-2,4-dione]
chromatographic logP [1, 3]: 3.35
pest or weed control at 500 g/ha [2, 6]: 90%

Cc1cc(C)c(N2CCNC2=O)cc1SCC(F)(F)F [Example 1, 1-{2,4-Dimethyl-5-[(2,2,2-trifluoroethyl)sulfanyl]phenyl}imidazolidin-2-one]
chromatographic logP [1, 3]: 2.43
chromatographic logP [1, 5]: 2.39
pest or weed control at 500 g/ha ([2]; Tetranychus urticae, foliar, 144 h, read-out: efficacy in %): 90%

Cc1cc(F)c(-n2c(=O)n(-c3ccccc3)c(=O)n2CC(F)(F)F)cc1[S+]([O-])CC(F)(F)F (centres unmarked) [Example 167]
logP (HCOOH) [1]: 3.05
logP (neutral) [1]: 3.01
efficacy in % [2, 4]: 90%

CCC1(CC)C(=O)N(C)N(c2cc([S+]([O-])CC(F)(F)F)c(C)cc2F)C1=O (centres unmarked) [Example 176]
logP (HCOOH) [1]: 2.37
logP (neutral) [1]: 2.31
efficacy in % [2, 4]: 100%

Cc1cc(F)c(-n2c(=O)n(-c3cccc(C(F)(F)F)c3)c(=O)n2C)cc1SCC(F)(F)F [Example 76]
logP (HCOOH) [1]: 4.09
logP (neutral) [1]: 3.94
efficacy in % [2, 4]: 100%

Cc1cc(F)c(-n2c(=O)n(-c3ccccc3)c(=O)n2CC(F)(F)F)cc1SCC(F)(F)F [Example 155]
logP (HCOOH) [1]: 3.93
logP (neutral) [1]: 3.90
efficacy in % [2, 4]: 90%

Cc1cc(F)c(N2C(=O)C(=O)N(CC(C)(C)C)C2=S)cc1[S+]([O-])CC(F)(F)F (centres unmarked) [Example 195]
logP (HCOOH) [1]: 3.85
logP (neutral) [1]: 3.79
efficacy in % [2, 4]: 90%

C=CCn1c(=O)n(-c2cc([S+]([O-])CC(F)(F)F)c(C)cc2F)c(=O)n1C (racemic) [Example 124]
logP (HCOOH) [1]: 2.00
efficacy in % [2, 4]: 100%

Cc1cc(F)c(N2C(=O)C(=O)N(C3CC3)C2=O)cc1[S+]([O-])CC(F)(F)F (centres unmarked) [Example 183]
logP (HCOOH) [1]: 2.31
efficacy in % [2, 4]: 100%

Cc1ccc(-n2c(=O)n(C)c(=O)n2-c2ccc(C)c([S+]([O-])CC(F)(F)F)c2)cc1[S+]([O-])CC(F)(F)F (centres unmarked) [Example 82]
logP (HCOOH) [1]: 2.67
logP (neutral) [1]: 2.61
efficacy in % [2, 4]: 90%

Cc1cc(C)c(N2C(=O)C(=O)N(CC(F)(F)F)C2=S)cc1SCC(F)(F)F [Example 187]
logP (HCOOH) [1]: 4.21
efficacy in % [2, 4]: 90%

Cc1cc(F)c(-n2c(=O)n(C3CC3)c(=O)n2C)cc1[S+]([O-])CC(F)(F)F (single isomer, unassigned) [Example 151]
logP (HCOOH) [1]: 1.98
logP (neutral) [1]: 1.88
efficacy in % [2, 4]: 90%

Cn1c(=O)n(C)n(-c2ccc(Cl)c(SCC(F)(F)F)c2)c1=O [Example 31]
logP (HCOOH) [1]: 2.72
logP (neutral) [1]: 2.69
efficacy in % [2, 4]: 90%

Cc1cc(F)c(N2CCCC2=NCC(F)(F)F)cc1SCC(F)(F)F [Example 6, 2,2,2-Trifluoro-N-(1-[2-fluoro-4-methyl-5-[(2,2,2-trifluoroethyl)sulfanyl]phenyl]pyrrolidin-2-ylidene)ethanamine]
chromatographic logP [1, 3]: 1.68
chromatographic logP [1, 5]: 4.24
pest or weed control at 500 g/ha [2, 6]: 90%

Cc1cc(F)c(-n2c(=O)n(C3CCCCC3)c(=O)n2C)cc1SCC(F)(F)F [Example 136]
logP (HCOOH) [1]: 4.17
logP (neutral) [1]: 4.13
efficacy in % [2, 4]: 90%

CCn1c(=O)n(-c2ccc(C)c([S+]([O-])CC(F)(F)F)c2)n(C(C)C)c1=O (centres unmarked) [Example 140]
logP (HCOOH) [1]: 2.56
logP (neutral) [1]: 2.54
efficacy in % [2, 4]: 90%

C=CCN1CC(=O)N(c2cc([S+]([O-])CC(F)(F)F)c(C)cc2F)C1=O (racemic) [Example 201]
logP (HCOOH) [1]: 2.02
logP (neutral) [1]: 1.99
efficacy in % [2, 4]: 100%

CCn1c(=O)n(-c2ccccc2)c(=O)n1-c1cc(SCC(F)(F)F)c(C)cc1F [Example 87, 1-Ethyl-2-{2-fluoro-4-methyl-5-[(2,2,2-trifluoroethyl)sulfanyl]phenyl}-4-phenyl-1,2,4-triazolidine-3,5-dione]
chromatographic logP [1, 3]: 3.71
chromatographic logP [1, 5]: 3.69
pest or weed control at 500 g/ha [2, 6]: 90%

Cn1c(=O)n(C2CC2)c(=O)n1-c1ccc(Cl)c([S+]([O-])CC(F)(F)F)c1 (centres unmarked) [Example 39]
logP (HCOOH) [1]: 2.20
logP (neutral) [1]: 2.17
efficacy in % [2, 4]: 100%

Cc1cc(F)c(N2C(=O)CCC2=O)cc1SCC(F)(F)F [Example 19, 1-{2-Fluoro-4-methyl-5-[(2,2,2-trifluoroethyl)sulfanyl]phenyl}pyrrolidine-2,5-dione]
chromatographic logP [1, 3]: 2.52
chromatographic logP [1, 5]: 2.45
pest or weed control at 500 g/ha [2, 6]: 100%

Cc1cc(F)c(-n2c(=O)n(-c3ccccc3)c(=O)n2C)cc1[S+]([O-])CC(F)(F)F (centres unmarked) [Example 163]
logP (HCOOH) [1]: 2.44
logP (neutral) [1]: 2.38
efficacy in % [2, 4]: 90%

Cc1cc(F)c(N2C(=O)C(=O)N(CC(F)F)C2=O)cc1SCC(F)(F)F [Example 101, 1-(2,2-Difluoroethyl)-3-[2-fluoro-4-methyl-5-[(2,2,2-trifluoroethyl)sulfanyl]phenyl]imidazolidine-2,4,5-trione]
chromatographic logP [1, 3]: 3.22
chromatographic logP [1, 5]: 1.73
pest or weed control at 500 g/ha [2, 6]: 100%

Cc1ccc(-n2c(=O)n(C)c(=O)n2C)cc1[S+]([O-])CC(F)(F)F (centres unmarked) [Example 21, 1,4-Dimethyl-2-{4-methyl-3-[(2,2,2-trifluoroethyl)sulfinyl]phenyl}-1,2,4-triazolidine-3,5-dione]
chromatographic logP [1, 3]: 1.63
chromatographic logP [1, 5]: 1.63
pest or weed control at 500 g/ha [2, 6]: 100%

Cc1cc(F)c(N2C(=O)OCC2C)cc1SCC(F)(F)F (centres unmarked) [Example 108, 3-[2-Fluoro-4-methyl-5-(2,2,2-trifluoroethylsulfanyl)phenyl]-4-methyloxazolidin-2-one]
chromatographic logP [1, 3]: 2.92
pest or weed control at 500 g/ha [2, 6]: 90%

Cc1cc(F)c(-n2c(=O)n(CC(F)F)c(=O)n2CC(F)(F)F)cc1[S+]([O-])CC(F)(F)F (centres unmarked) [Example 168]
logP (HCOOH) [1]: 2.60
logP (neutral) [1]: 2.58
efficacy in % [2, 4]: 90%

Cc1cc(F)c(N2CCN(C)C2=O)cc1[S+]([O-])CC(F)(F)F (racemic) [Example 199]
logP (HCOOH) [1]: 1.76
logP (neutral) [1]: 1.74
efficacy in % [2, 4]: 100%

CCn1c(=O)n(CC(F)(F)F)n(-c2cc(SCC(F)(F)F)c(C)cc2F)c1=O [Example 145]
logP (HCOOH) [1]: 3.54
logP (neutral) [1]: 3.49
efficacy in % [2, 4]: 100%

Cn1c(=O)n(C)n(-c2ccc(Br)c(SCC(F)(F)F)c2)c1=O [Example 68]
logP (HCOOH) [1]: 2.83
logP (neutral) [1]: 2.78
efficacy in % [2, 4]: 100%

Cc1cc(F)c(-n2c(=O)n(C(C)C)c(=O)n2CC(C)C)cc1SCC(F)(F)F [Example 149]
logP (HCOOH) [1]: 4.27
logP (neutral) [1]: 4.21

CCn1c(=O)n(CC)n(-c2ccc(C)c(SCC(F)(F)F)c2)c1=O [Example 100, 1,4-Diethyl-2-{4-methyl-3-[(2,2,2-trifluoroethyl)sulfanyl]phenyl}-1,2,4-triazolidine-3,5-dione]
chromatographic logP [1, 3]: 3.32
chromatographic logP [1, 5]: 3.29

CCC(C)n1c(=O)n(C2CC2)c(=O)n1-c1cc(SCC(F)(F)F)c(C)cc1F (centres unmarked) [Example 73]
logP (HCOOH) [1]: 3.86
logP (neutral) [1]: 3.72
